Laboratory results: ChEMBL document CHEMBL1201862, “PubChem BioAssay data set” (2004)
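Tested at 5 concentrations; 48 h exposure; 96-well plates; endpoints linearly interpolated, else capped at highest concentration. Abbreviation: GI50, concentration required for 50% inhibition of growth.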 Active and inactive are the calls of the source. Cut-off read from the data, not from the text of the source: active = GI50 up to about 1.1 µM and inactive = higher.

Experiments:
Test in all cases: NCI anticancer screen, dose series, 48 h
NCI-H226 = tested on: NCI-H226
KM-20L2 = tested on: KM-20L2
UACC-62 = tested on: UACC-62
DU-145 = tested on: DU-145
UO-31 = tested on: UO-31
SK-MEL-2 = tested on: SK-MEL-2
OVCAR-3 = tested on: OVCAR-3
LOX IMVI = tested on: LOX IMVI
CCRF-CEM = tested on: CCRF-CEM
SN12C = tested on: SN12C
MDA-N = tested on: MDA-N
NCI-H522 = tested on: NCI-H522
SK-MEL-28 = tested on: SK-MEL-28
BT-549 = tested on: BT-549
MDA-MB-231 = tested on: MDA-MB-231
HCT-15 = tested on: HCT-15
MOLT-4 = tested on: MOLT-4
IGROV-1 = tested on: IGROV-1
HCC 2998 = tested on: HCC 2998
SF-539 = tested on: SF-539
SF-268 = tested on: SF-268
NCI-H23 = tested on: NCI-H23
A549 = tested on: A549
LXFL 529 = tested on: LXFL 529
M14 = tested on: M14
HOP-92 = tested on: HOP-92
HCT-116 = tested on: HCT-116
EKVX = tested on: EKVX
SF-295 = tested on: SF-295
U-251 = tested on: U-251
SR = tested on: SR
A498 = tested on: A498
OVCAR-5 = tested on: OVCAR-5
KM12 = tested on: KM12
RXF 393 = tested on: RXF 393
XF498 = tested on: XF498
MCF7 = tested on: MCF7
ACHN = tested on: ACHN
HOP-62 = tested on: HOP-62
K562 = tested on: K562
MDA-MB-435 = tested on: MDA-MB-435
SK-MEL-5 = tested on: SK-MEL-5
DMS-114 = tested on: DMS-114
SNB-78 = tested on: SNB-78
PC-3 = tested on: PC-3
SK-OV-3 = tested on: SK-OV-3
HL-60 = tested on: HL-60
SNB-19 = tested on: SNB-19
NCI/ADR-RES = tested on: NCI/ADR-RES
M19-MEL = tested on: M19-MEL
OVCAR-8 = tested on: OVCAR-8
786-0 = tested on: 786-0
UACC-257 = tested on: UACC-257
DLD-1 = tested on: DLD-1
NCI-H460 = tested on: NCI-H460
Malme-3M = tested on: Malme-3M
COLO 205 = tested on: COLO 205
TK-10 = tested on: TK-10
T47D = tested on: T47D
SW-620 = tested on: SW-620
SNB-75 = tested on: SNB-75
CAKI-1 = tested on: CAKI-1
HT-29 = tested on: HT-29
OVCAR-4 = tested on: OVCAR-4
RPMI-8226 = tested on: RPMI-8226
Hs-578T = tested on: Hs-578T

For `N=C1C=CC(=C(c2ccc(N)cc2)c2ccc(N)cc2)C=C1`, the GI50 (NCI-H226) was 3.68 µM (inactive), the GI50 (KM-20L2) was 4.3 µM (inactive) and the GI50 (UACC-62) was 3.87 µM (inactive). The GI50 (DU-145) was 5.71 µM (inactive), the GI50 (UO-31) was 12.5 µM (inactive) and the GI50 (SK-MEL-2) was 2.9 µM (inactive). The GI50 (OVCAR-3) was 10 µM (inactive), the GI50 (LOX IMVI) was 3.91 µM (inactive) and the GI50 (CCRF-CEM) was 3.15 µM (inactive). For the same compound, the GI50 (SN12C) was 0.444 µM (active), the GI50 (MDA-N) was 4.84 µM (inactive) and the GI50 (NCI-H522) was 2.64 µM (inactive). For the same compound, the GI50 (SK-MEL-28) was 8.13 µM (inactive), the GI50 (BT-549) was 0.982 µM (active) and the GI50 (MDA-MB-231) was 4.66 µM (inactive). For the same compound, the GI50 (HCT-15) was 12.8 µM, the GI50 (MOLT-4) was 3.73 µM (inactive) and the GI50 (IGROV-1) was 9.86 µM (inactive). The GI50 (HCC 2998) was 4.93 µM (inactive), the GI50 (SF-539) was 2.02 µM (inactive) and the GI50 (SF-268) was 0.542 µM (active). The GI50 (NCI-H23) was 3.63 µM (inactive), the GI50 (A549) was 3.73 µM (inactive) and the GI50 (LXFL 529) was 1.57 µM (inactive). The GI50 (M14) was 4.05 µM (inactive), the GI50 (HOP-92) was 3.22 µM (inactive) and the GI50 (HCT-116) was 3.87 µM (inactive). For the same compound, the GI50 (EKVX) was 5.58 µM (inactive), the GI50 (SF-295) was 3.99 µM (inactive) and the GI50 (U-251) was 0.406 µM (active). For the same compound, the GI50 (SR) was 11.1 µM (inactive), the GI50 (A498) was 6.97 µM (inactive) and the GI50 (OVCAR-5) was 9.27 µM (inactive). For the same compound, the GI50 (KM12) was 3.01 µM (inactive), the GI50 (RXF 393) was 6.5 µM (inactive) and the GI50 (XF498) was 2.38 µM (inactive). The GI50 (MCF7) was 3.11 µM (inactive), the GI50 (ACHN) was 8.17 µM (inactive) and the GI50 (HOP-62) was 3.3 µM (inactive). For the same compound, the GI50 (K562) was 2.39 µM (inactive), the GI50 (MDA-MB-435) was 4.18 µM (inactive) and the GI50 (SK-MEL-5) was 1.09 µM (active). For the same compound, the GI50 (DMS-114) was 2.18 µM (inactive), the GI50 (SNB-78) was 4.14 µM (inactive) and the GI50 (PC-3) was 3.12 µM (inactive). For the same compound, the GI50 (SK-OV-3) was 13.1 µM (inactive), the GI50 (HL-60) was 3.85 µM (inactive) and the GI50 (SNB-19) was 0.532 µM (active). For the same compound, the GI50 (NCI/ADR-RES) was 16.2 µM (inactive), the GI50 (M19-MEL) was 4.13 µM (inactive) and the GI50 (OVCAR-8) was 1.91 µM (inactive). For the same compound, the GI50 (786-0) was 2.36 µM (inactive), the GI50 (UACC-257) was 4.59 µM (inactive) and the GI50 (DLD-1) was 5.12 µM (inactive). The GI50 (NCI-H460) was 3.61 µM (inactive), the GI50 (Malme-3M) was 3.18 µM (inactive) and the GI50 (COLO 205) was 1.64 µM (inactive). For the same compound, the GI50 (TK-10) was 10.2 µM (inactive), the GI50 (T47D) was 0.968 µM (active) and the GI50 (SW-620) was 3.68 µM (inactive). The GI50 (SNB-75) was 0.519 µM (active), the GI50 (CAKI-1) was 19.1 µM (inactive) and the GI50 (HT-29) was 3.77 µM (inactive). For the same compound, the GI50 (OVCAR-4) was 9.93 µM (inactive), the GI50 (RPMI-8226) was 2.29 µM (inactive) and the GI50 (Hs-578T) was 0.51 µM (active).
